According to PMC7332481, “Ecotoxicity screening evaluation of selected pharmaceuticals and their transformation products towards various organisms” (Environmental Science and Pollution Research International, 2020):
Values after ≈ are worked out from the molar mass of the structure shown. Where two headings read alike, the source gives them in different places.

Key:
Lemna minor = test: L. minor growth inhibition test; details: for EC50: 168 h, read-out: EC50 L. minor (with confidence interval 2.5–97.5%), growth rate inhibition by frond area, 7 days; for EC50 L. minor (with confidence interval 2.5–97.5%): growth rate inhibition by frond area, 7 days
Procedure: (§1) All tests were carried out in accordance with the OECD or ISO guidelines. In general the experimental part was divided into three main steps: (i) determination of the toxicity of the native forms of pharmaceuticals (their racemic mixtures), (ii) toxicity evaluation of the selected TPs of these pharmaceuticals, and (iii) preliminary toxicity assessment of the enantiomers of selected pharmaceuticals. For each assay, range-finding tests were conducted, in order to determine the range of concentrations for the definitive tests. The main tests were repeated three times in at least two parallel replicates, with a minimum of five concentrations for native forms of the selected pharmaceuticals (including their enantiomers). The exact number of replicates and concentrations tested was included in the description of each test. […] However, TPs were tested in a different manner; first, the tests were carried out at the limit concentration of 100 mg L^−1. […] Such approach was applied in order to observe the relative toxicity of the selected TP and its native form.
(§2) Dose-response curves were fitted using a linear logistic or logistic model (the model giving the best fit was chosen) (https://cran.r-project.org/web/packages/drfit/drfit.pdf). The mathematic formulas applied for this purpose are presented and described in the Supplementary Material. The EC50 values were given since log EC50 is a model parameter in the logistic as well as in linear logistic model.
One week before the assay, the inoculum cultures were prepared; eight healthy plants were placed into a new portion of the medium. Two days before the test, the plants were transferred to a fresh medium, in order to supplement nutrients and to eliminate plant metabolites. The experiments were performed in six-well plates under the conditions described above. The pH value of the Steinberg medium and all solutions was 5.5 (± 0.5). Every test included six different concentrations of compound and six controls in three replicates. The test started with one plant consisting of three fronds and the measured endpoint was the inhibition of growth rate determined by comparing the frond area (mm^2) for the treated plants and untreated controls.

Raphidocelis subcapitata = test: R. subcapitata reproduction (growth) inhibition test; format: cell-based; details: for EC50 / EC50 R. subcapitata (with confidence interval 2.5–97.5%): 72 h, growth inhibition by cell counts; for EC50: read-out: EC50 R. subcapitata (with confidence interval 2.5–97.5%)
Procedure: as §1, §2
Test organisms were provided from Algal Culture Collection (Universität Göttingen, Germany). […] The light-dark cycle was different from the OECD guidelines, and it was introduced to imitate natural growth conditions. In order to ensure that the algae are in the exponential growth phase when used to inoculate the test solutions, the stock culture was diluted three times a week. The test was carried out in 25 mL suspension cell culture flasks (Nunc) (working volume 10 mL). All operations were performed under sterile conditions. The initial cell concentration was 5 × 10^4 cells mL^−1. Eight different concentrations of every compound in three replicates and a minimum of six controls were used in each test. […] The test flasks were incubated on a shaker with a speed of approx. 75 rpm at the temperature and light conditions described above. Growth inhibition was calculated using the cell counts of the treated samples in relation to the untreated controls after 72 h of exposure. The cells were counted with the use of CASY TT Cell counter & analyzer.

aquatic organisms = details: for the organisms named in the sentence
Arthrobacter globiformis = test: A. globiformis dehydrogenase inhibition test (version without soil); details: read-out: EC50 A. globiformis
Procedure: as §1
The test strain was obtained from the German Collection of Microorganisms (DSMZ). A version of the test without soil was performed. Bacteria was grown in a sterile medium containing 10 g L^−1 peptone from casein, 5 g L^−1 yeast extract, 5 g L^−1 glucose, and 5 g L^−1 NaCl. For the test, the medium was diluted in a ratio of 1:3 in water. The inoculum was the bacteria in a log-growth phase. Cell density was adjusted to 1 × 10^8 cells mL^−1, which corresponds to an optical density (OD600nm) of 0.4. The test was performed in 24-well microplates. Each well contained 1 mL of solution of the tested compound in water and 1 mL of bacterial inoculum. Next, the plates were incubated for 2 h at 30 °C on a horizontal shaker with a speed of 100 rpm. To each well, a portion of 0.6 mL of the redox active dye resazurine (45 mg L^−1) dissolved in buffer was added. The microplates were further incubated for 1 h (30 °C, 100 rpm). To stop the reduction process, the plates were centrifuged at 3600g for 10 min. Aliquots (300 μl) of supernatant from each well were immediately transferred to the wells of a 96-well microplate in triplicates. Finally, the dehydrogenase activity was determined by measuring the formation of resorufin from resazurine using a fluorimeter ([…]). Dehydrogenase inhibition was calculated using Eq. 1.
where FBTS is the measured fluorescence of the blank (medium) with the tested substance, FTS is the measured fluorescence of the sample, FBNC is the measured fluorescence of the blank, and FNC is the measured fluorescence of the negative control (with bacteria).

Vibrio fischeri = test: microbe, parasite or virus in culture; format: cell-based; details: for EC50: 0.5 h, read-out: EC50 V. fischeri (with confidence interval 2.5–97.5%); for EC50 / EC50 V. fischeri (with confidence interval 2.5–97.5%): luminescence inhibition, 30 min, 15 °C; for inhibition at 10 µg/mL: concentration 10 mg L^−1
Procedure: (§3) Stock solutions and dilutions were prepared in 2% NaCl in 0.02 M phosphate buffer, pH 7. The freeze-dried bacteria were rehydrated prior to testing in a reactivation solution. Culture suspensions and diluted samples were pre-incubated at 15 °C for 15 min. After the initial luminescence was measured, 0.5 mL of the culture suspension was mixed with the same volume of a diluted sample. The final bioluminescence was measured after 30 min. Incubation was kept at 15 °C (LUMIStox 300 meter, Dr. Lange GmbH, Berlin, Germany). The relative toxicity of the samples was expressed as a percentage of luminescence inhibition compared to the controls.
as §3, with “m,” for “meter,”

Daphnia magna = test: D. magna acute immobilization test; format: in vivo; details: for EC50 / EC50 D. magna (with confidence interval 2.5–97.5%): immobilization, 48 h; for EC50: read-out: EC50 D. magna (with confidence interval 2.5–97.5%); for mortality at 100 µg/mL: concentration 100 mg L^−1; for mortality at 50 µg/mL: concentration 50 mg L^−1
Procedure: as §1, §2
Five pre-fed test organisms were incubated with the studied compounds diluted in 10 mL of test media in glass test vessels at 20 °C (± 1 °C) in darkness for 48 h. Each test consisted of a control and five different concentrations of the studied compound in four parallel replicates. In order to achieve a full dose-response relationship, the concentration series covered the range of 0–100% immobilization. The number of immobilized or dead organisms was checked after 24 and 48 h. The negative effect of exposure to the tested compounds was expressed by the number of immobilized organisms compared to the controls.

[1] = Lemna minor, read-out: Growth inhibition of L. minor
[2] = Raphidocelis subcapitata, concentration 100 mg L^−1, read-out: Growth inhibition of R. subcapitata
[3] = Aliivibrio fischeri, concentration 100 mg L^−1, read-out: Luminescence inhibition
[4] = Aliivibrio fischeri, read-out: Luminescence inhibition

Question: With `Cc1cc(NS(=O)(=O)c2ccc(N)cc2)no1` [SMZ, Sulfamethoxazole] as the molecule, how does the inhibition at 3 µg/mL (Lemna minor; [1]) read?
Answer: The inhibition at 3 µg/mL was 49%.

Question: And the inhibition at 5 µg/mL (Raphidocelis subcapitata; Raphidocelis subcapitata, concentration 5 mg L^−1, read-out: Growth inhibition of R. subcapitata)?
Answer: Its inhibition at 5 µg/mL is 43%.

Question: What about the “classification on the basis of EC50 values (EC 93/67/EEC)” value (aquatic organisms) of the same molecule?
Answer: Its value is “toxic to aquatic organisms (1–10 mg L^−1 are “toxic to aquatic organisms”)”.

Question: What about the EC50 (Arthrobacter globiformis) of the same molecule?
Answer: Its EC50 is > 100 µg/mL.

Question: What about the EC50 (Vibrio fischeri; Aliivibrio fischeri) of the same molecule?
Answer: The EC50 was 51.8 µg/mL (≈ 204 µM).

Question: And the inhibition at 50 µg/mL (Vibrio fischeri; Aliivibrio fischeri, concentration 50 mg L^−1, read-out: Luminescence inhibition)?
Answer: The inhibition at 50 µg/mL was 46%.

Question: And the mortality at 40 µg/mL (Daphnia magna; Daphnia magna, concentration 40 mg L^−1, read-out: Immobilization)?
Answer: Its mortality at 40 µg/mL is 48%.

Question: And the EC50 (Daphnia magna; Daphnia magna)?
Answer: The EC50 was 42.7 µg/mL (≈ 169 µM).

Question: What does the source list for `NC(=O)N1c2ccccc2C=Cc2ccccc21` [CRB, Carbamazepine]?
Answer: EC50 (Lemna minor; Lemna minor): 50.2 µg/mL (≈ 212 µM); inhibition at 50 µg/mL (Lemna minor; [1]): 49%; EC50 (Raphidocelis subcapitata; Raphidocelis subcapitata): > 100 µg/mL; inhibition at 100 µg/mL (Raphidocelis subcapitata; [2]): 49%; Growth inhibition of R. subcapitata (Raphidocelis subcapitata; concentration 100 mg L^−1): 48%; EC50 (Arthrobacter globiformis): > 100 µg/mL; EC50 (Vibrio fischeri; Aliivibrio fischeri): > 100 µg/mL; inhibition at 100 µg/mL (Vibrio fischeri; [3]): 42%; mortality at 100 µg/mL (Daphnia magna; Daphnia magna): 24%; EC50 (Daphnia magna; Daphnia magna): > 100 µg/mL

Question: For `CC(C(=O)O)c1ccc(CC(C)(C)O)cc1` (stereo not shown) [2-OH-IBU, 2-Hydroxyibuprofen], which inhibition at 15 µg/mL (Lemna minor; [1]) is on record?
Answer: The inhibition at 15 µg/mL was 11%.

Question: And the inhibition at 100 µg/mL (Raphidocelis subcapitata; [2])?
Answer: Its inhibition at 100 µg/mL is 16%.

Question: What about the inhibition at 10 µg/mL (Vibrio fischeri; [4]) of the same molecule?
Answer: The inhibition at 10 µg/mL was 4%.

Question: What about the mortality at 50 µg/mL (Daphnia magna; Daphnia magna) of the same molecule?
Answer: The mortality at 50 µg/mL was 0%.

Question: How did the inhibition at 100 µg/mL (Lemna minor; [1]) turn out when `CN(C)CC1CCCCC1(O)c1cccc(O)c1` (stereo not shown) [O-DES-TRA, O-Desmethyltramadol] was run?
Answer: The inhibition at 100 µg/mL was 0%.

Question: And the “toxicity to L. minor” value (Lemna minor; highest tested concentration (100 mg L^−1))?
Answer: Its value is “non-toxic”.

Question: And the inhibition at 100 µg/mL (Raphidocelis subcapitata; Raphidocelis subcapitata, read-out: Growth inhibition of R. subcapitata)?
Answer: Its inhibition at 100 µg/mL is 35%.

Question: And the inhibition at 100 µg/mL (Vibrio fischeri; [4])?
Answer: Its inhibition at 100 µg/mL is 0%.

Question: What about the mortality at 70 µg/mL (Daphnia magna; Daphnia magna, read-out: Immobilization) of the same molecule?
Answer: The mortality at 70 µg/mL was 8%.

Question: Which EC50 (Lemna minor; Lemna minor) does the source give for `CC(C)Cc1ccc(C(C)C(=O)O)cc1` (stereo not shown) [IBU, Ibuprofen] here?
Answer: Its EC50 is 13.2 µg/mL (≈ 64.2 µM).

Question: What about the inhibition at 15 µg/mL (Lemna minor; [1]) of the same molecule?
Answer: Its inhibition at 15 µg/mL is 54%.

Question: What about the EC50 (Raphidocelis subcapitata; Raphidocelis subcapitata) of the same molecule?
Answer: Its EC50 is 93.3 µg/mL (≈ 452 µM).

Question: And the inhibition at 100 µg/mL (Raphidocelis subcapitata; [2])?
Answer: The inhibition at 100 µg/mL was 52%.

Question: And the EC50 (Arthrobacter globiformis)?
Answer: Its EC50 is > 100 µg/mL.

Question: What about the inhibition at 10 µg/mL (Vibrio fischeri; [4]) of the same molecule?
Answer: The inhibition at 10 µg/mL was 42%.

Question: What about the mortality at 50 µg/mL (Daphnia magna; Daphnia magna) of the same molecule?
Answer: Its mortality at 50 µg/mL is 52%.

Question: And the EC50 (Daphnia magna; Daphnia magna)?
Answer: The EC50 was 50.1 µg/mL (≈ 243 µM).

Question: `COCCc1ccc(OCC(O)CNC(C)C)cc1` (stereo not shown) [MET, Metoprolol] was tested. Which EC50 (Lemna minor; Lemna minor) did it give?
Answer: Its EC50 is > 100 µg/mL.

Question: What about the inhibition at 100 µg/mL (Lemna minor; [1]) of the same molecule?
Answer: The inhibition at 100 µg/mL was 5%.

Question: And the EC50 (Raphidocelis subcapitata; Raphidocelis subcapitata)?
Answer: Its EC50 is 35.6 µg/mL (≈ 133 µM).

Question: And the inhibition at 100 µg/mL (Raphidocelis subcapitata; [2])?
Answer: Its inhibition at 100 µg/mL is 90%.

Question: What about the EC50 (Arthrobacter globiformis) of the same molecule?
Answer: Its EC50 is > 100 µg/mL.

Question: And the EC50 (Vibrio fischeri; Aliivibrio fischeri)?
Answer: Its EC50 is > 100 µg/mL.

Question: What about the inhibition at 100 µg/mL (Vibrio fischeri; [3]) of the same molecule?
Answer: The inhibition at 100 µg/mL was 3%.

Question: What about the mortality at 100 µg/mL (Daphnia magna; Daphnia magna) of the same molecule?
Answer: Its mortality at 100 µg/mL is 4%.

Question: And the EC50 (Daphnia magna; Daphnia magna)?
Answer: Its EC50 is > 100 µg/mL.

Question: What does the source list for `COc1ccc2cc([C@H](C)C(=O)O)ccc2c1` (single isomer, unassigned) [NAP Isomer S, S-naproxen]?
Answer: EC50 L. minor (with confidence interval 2.5–97.5%) (Lemna minor): 29.14 (27.19–31.40) mg L^−1; EC50 R. subcapitata (with confidence interval 2.5–97.5%) (Raphidocelis subcapitata): 27.80 (25.67–30.05) mg L^−1; EC50 V. fischeri (with confidence interval 2.5–97.5%) (Vibrio fischeri): 20.60 (19.50–21.75) mg L^−1; EC50 D. magna (with confidence interval 2.5–97.5%) (Daphnia magna): 68.76 (54.64–90.98) mg L^−1

Question: How did the “EC50 L. minor (with confidence interval 2.5–97.5%)” value (Lemna minor) turn out when `COc1ccc2cc([C@@H](C)C(=O)O)ccc2c1` (single isomer, unassigned) [NAP Isomer R, R-naproxen] was run?
Answer: The value was 22.37 (20.76–24.04) mg L^−1.

Question: And the “EC50 R. subcapitata (with confidence interval 2.5–97.5%)” value (Raphidocelis subcapitata)?
Answer: Its value is 21.08 (19.64–22.59) mg L^−1.

Question: And the “EC50 V. fischeri (with confidence interval 2.5–97.5%)” value (Vibrio fischeri)?
Answer: Its value is 7.53 (7.11–7.99) mg L^−1.

Question: What about the “EC50 D. magna (with confidence interval 2.5–97.5%)” value (Daphnia magna) of the same molecule?
Answer: Its value is 97.35 (91.90–104.95) mg L^−1.
